According to patent US11958812B2, “3, 5-disubstituted pyridine and 3, 5-disubstituted pyridazine derivatives and pharmaceutical use of same” (MITSUBISHI TANABE PHARMA CORPORATION, priority 2018, dated 2024):

Molecular target: human recombinant ATX (Homo sapiens, UniProt Q13822)
Experiment: Enzyme inhibition test (choline release from LPC, Amplex UltraRed fluorescence)
Assay type: biochemical
Settings: 200 μM LPC substrate, 1 hr at room temperature, read-out: Experimental Example 1 human ATX IC50
Protocol: [Enzyme Inhibition Test Method]
A mixture (10 μL) of substrate and a set of choline quantification reagents (200 μM LPC (1-Oleoyl-sn-glycero-3-phosphocholine Sigma #L1881), 25 μM Amplex UltraRed reagent (Invitrogen), 0.1 U/mL Peroxidase (TOYOBO), 1 U/mL Choline oxidase (TOYOBO)), prepared with assay buffer (50 mM Tris (pH 8.0), 140 mM NaCl, 5 mM KCl, 1 mM CaCl2, 1 mM MgCl2, 0.1% BSA (Albumin from bovine serum, SIGMA), 0.0025% Triton X-100), enzyme (0.4 ng/μL human recombinant ATX) (10 μL), compound-containing solution (100 nL) were dispensed to a 384-well plate, incubated at room temperature for 1 hr and the fluorescence (Ex. 525 nm/Em. 598 nm) was measured. As the standard, choline chloride was used. With a blank free of enzyme was taken as inhibitory rate 100%, and a control free of inhibitor as inhibitory rate 0%, the inhibitory rate was calculated, and IC50 value was calculated from the inhibitory activity percentage at each concentration.

| SMILES | IC50 [nM] |
| --- | --- |
| O=C(O)CC[C@H]1CN(c2cncc(OCc3ccccc3Cl)c2)CCO1 [Example 80] | 493 |
| O=C(O)c1cccc(C2CN(c3cncc(OCc4ccc(OC(F)(F)F)cc4)c3)CCO2)c1 (stereo not shown) [Example 43] | 13 |
| O=C(O)[C@@H]1C[C@H]1c1cc(-c2cncc(OCc3ccc(OC(F)(F)F)cc3)c2)ccn1 [Example 11-2, (1R,2R)-2-(5-{[4-(trifluoromethoxy)benzyl]oxy}-3,4′-bipyridin-2′-yl)cyclopropanecarboxylic Acid] | 25 |
| CC1(C)CCC(COc2cncc(N3CCO[C@@H](CCC(=O)O)C3)c2)CC1 [Example 74] | 10 |
| O=C(O)c1ccccc1C1CN(c2cncc(OCc3ccc(OC(F)(F)F)cc3)c2)CCO1 (stereo not shown) [Example 44] | 350 |
| C[C@@]1(C(=O)O)C[C@H]1[C@H]1CN(c2cncc(OC[C@H]3CC[C@H](C(F)(F)F)CC3)c2)CCO1 (relative stereo) [Example 20, trans-1-methyl-2-[(2S)-4-(5-{[trans-4-(trifluoromethyl)cyclohexyl]methoxy}pyridin-3-yl)morpholin-2-yl]cyclopropanecarboxylic Acid] | 2 |
| O=C(O)[C@@H]1C[C@H]1c1cc(-c2cnnc(OC[C@H]3CC[C@H](C(F)(F)F)CC3)c2)ccn1 [Example 10-2, (1R,2R)-2-[4-(6-{[trans-4-(trifluoromethyl)cyclohexyl]methoxy}pyridazin-4-yl)pyridin-2-yl]cyclopropanecarboxylic Acid] | 3 |
| O=C(O)c1ccc(C2CN(c3cncc(OCc4ccc(OC(F)(F)F)cc4)c3)CCO2)nc1 (stereo not shown) [Example 63] | 7 |
| O=C(O)CC[C@H]1CN(c2cncc(CCc3ccc(OC(F)(F)F)cc3)c2)CCO1 [Example 18-1, 3-[(2S)-4-(5-{2-[4-(trifluoromethoxy)phenyl]ethyl}pyridin-3-yl)morpholin-2-yl]propanoic Acid] | 133 |
| COc1ccc(-c2cnnc(OC[C@H]3CC[C@H](C(F)(F)F)CC3)c2)nc1[C@H]1C[C@]1(C)C(=O)O [Example 7-1, (1S,2S)-2-[3-methoxy-6-(6-{[trans-4-(trifluoromethyl)cyclohexyl]methoxy}pyridazin-4-yl)pyridin-2-yl]-1-methylcyclopropanecarboxylic Acid] | 1 |
| O=C(O)CCC1CCN(c2cncc(OCc3ccc(OC(F)(F)F)cc3)c2)C1 (stereo not shown) [Example 98] | 120 |
| O=C(O)CC1CCN(c2cncc(OCc3ccc(OC(F)(F)F)cc3)c2)C1 (stereo not shown) [Example 97] | 378 |
| Cc1nc(C2CN(c3cncc(OC[C@H]4CC[C@H](C(F)(F)F)CC4)c3)CCO2)ccc1C(=O)O (stereo partly shown) [Example 57] | 7 |
| O=C(O)c1ccc(C2CN(c3cncc(OC[C@H]4CC[C@H](C(F)(F)F)CC4)c3)CCO2)nc1 (stereo partly shown) [Example 50] | 10 |
| O=C(O)C1CN(c2cncc(OCc3ccc(OC(F)(F)F)cc3)c2)CCO1 (stereo not shown) [Example 90] | 419 |
| O=C(O)CC[C@H]1CN(c2cncc(OCC3CCC4(CC3)CC4)c2)CCO1 [Example 73] | 9 |
| O=C(O)c1ccc2c(c1)N(c1cncc(OC[C@H]3CC[C@H](C(F)(F)F)CC3)c1)CC2 [Example 35] | 1 |
| O=C(O)c1cncc(C2CN(c3cncc(OCc4ccc(OC(F)(F)F)cc4)c3)CCO2)c1 (stereo not shown) [Example 64] | 1 |
| CC(C[C@H]1CN(c2cncc(OCc3ccc(OC(F)(F)F)cc3)c2)CCO1)C(=O)O (stereo partly drawn) [Example 17, 2-methyl-3-[(2S)-4-(5-{[4-(trifluoromethoxy)benzyl]oxy}pyridin-3-yl)morpholin-2-yl]propanoic Acid] | 56 |
| O=C(O)c1ccc2c(c1)OCCN2c1cncc(OCc2ccc(OC(F)(F)F)cc2)c1 [Example 40] | 12 |
| O=C(O)c1ccnc(C2CN(c3cncc(OCc4ccc(OC(F)(F)F)cc4)c3)CCO2)c1 (stereo not shown) [Example 65] | 16 |
| O=C(O)c1ccc2c(c1)CCCN2c1cncc(OCc2ccc(OC(F)(F)F)cc2)c1 [Example 41] | 31 |
| Cc1cnc(C2CN(c3cncc(OC[C@H]4CC[C@H](C(F)(F)F)CC4)c3)CCO2)cc1C(=O)O (stereo partly shown) [Example 60] | 5 |
| COc1ccc(-c2cnnc(CCc3ccc(OC(F)(F)F)cc3)c2)cc1[C@@H]1C[C@H]1C(=O)O (relative stereo) [Example 4, trans-2-[2-methoxy-5-(6-{2-[4-(trifluoromethoxy)phenyl]ethyl}pyridazin-4-yl)phenyl]cyclopropanecarboxylic Acid] | 17 |
| O=C(O)COC[C@H]1CCCN1c1cncc(OCc2ccc(OC(F)(F)F)cc2)c1 [Example 24, {[(2R)-1-(5-{[4-(trifluoromethoxy)benzyl]oxy}pyridin-3-yl)pyrrolidin-2-yl]methoxy}acetic Acid] | 13 |

| SMILES | IC50 [nM] |
| --- | --- |
| O=C(O)COC[C@@H]1COCCN1c1cncc(OCc2ccc(OC(F)(F)F)cc2)c1 [Example 21, {[(3S)-4-(5-{[4-(trifluoromethoxy)benzyl]oxy}pyridin-3-yl)morpholin-3-yl]methoxy}acetic Acid] | 56 |
| COc1ccc(-c2cncc(/C=C\c3ccc(OC(F)(F)F)cc3)c2)nc1[C@H]1C[C@@H]1C(=O)O [Example 27] | 56 |
| O=C(O)c1cc(C2CN(c3cncc(OC[C@H]4CC[C@H](C(F)(F)F)CC4)c3)CCO2)ncc1C(F)(F)F (stereo partly shown) [Example 62] | 1 |
| O=C(O)CC[C@H]1CN(c2cncc(OCc3ccc(SC(F)(F)F)cc3)c2)CCO1 [Example 81] | 12 |
| C[C@H]1CN(c2cncc(OCc3ccc(OC(F)(F)F)cc3)c2)C[C@H](CCC(=O)O)O1 [Example 88] | 133 |
| COc1ccc(-c2cncc(OCc3cccc(Cl)c3)c2)cc1C1CC1C(=O)O (stereo not shown) [Example 32] | 26 |
| O=C(O)CC[C@H]1CN(c2cncc(OCc3cccc(Cl)c3)c2)CCO1 [Example 79] | 189 |
| CCOc1ccc(-c2cnnc(OCC3CCN(CC(F)(F)F)CC3)c2)cc1[C@H]1C[C@@H]1C(=O)O [Example 30] | 2 |
| O=C(O)/C=C/CC1COCCN1c1cncc(OCc2ccc(OC(F)(F)F)cc2)c1 (single isomer, unassigned) [Example 22-2] | 74 |
| O=C(O)CC[C@H]1CN(c2cncc(OC[C@H]3CC[C@@H](C(F)(F)F)CC3)c2)CCO1 [Example 76] | 78 |
| O=C(O)CC[C@H]1CN(c2cncc(OCC3CCCCC3)c2)CCO1 [Example 71] | 104 |
| O=C(O)CCCC1COCCN1c1cncc(OCc2ccc(OC(F)(F)F)cc2)c1 (stereo not shown) [Example 95] | 36 |
| O=C(O)c1cccc2c1CCN2c1cncc(OCc2ccc(OC(F)(F)F)cc2)c1 [Example 38] | 382 |
| Cc1cc(C2CN(c3cncc(OCc4ccc(OC(F)(F)F)cc4)c3)CCO2)cnc1C(=O)O (stereo not shown) [Example 66] | 5 |
| CC1(C(=O)O)CC1[C@H]1CN(c2cnnc(OC[C@H]3CC[C@H](C(F)(F)F)CC3)c2)CCO1 (stereo partly shown) [Example 89] | 9 |
| O=C(O)[C@H]1C[C@@H]1c1cc(-c2cncc(OCc3ccc(OC(F)(F)F)cc3)c2)ccn1 [Example 11-1, (1S,2S)-2-(5-{[4-(trifluoromethoxy)benzyl]oxy}-3,4′-bipyridin-2′-yl)cyclopropanecarboxylic Acid] | 10 |
| O=C(O)CC[C@H]1CN(c2cncc(COc3ccc(C(F)(F)F)cc3)c2)CCO1 [Example 86] | 129 |
| COc1ccc(C2CN(c3cncc(OC[C@H]4CC[C@H](C(F)(F)F)CC4)c3)CCO2)cc1C(=O)O (stereo partly shown) [Example 47] | 3 |
| O=C(O)c1cccc(C2CCN(c3cncc(OCc4ccc(OC(F)(F)F)cc4)c3)C2)c1 (stereo not shown) [Example 67] | 13 |
| O=C(O)CC[C@H]1CN(c2cncc(OCc3ccc(OC(F)(F)F)c(Cl)c3)c2)CCO1 [Example 85] | 29 |
| O=C(O)CC[C@@H]1CN(c2cncc(OCc3ccc(OC(F)(F)F)cc3)c2)CCO1 [Example 69] | 152 |
| O=C(O)c1ccc(C2CCCN2c2cncc(OCc3ccc(OC(F)(F)F)cc3)c2)cc1 (stereo not shown) [Example 68] | 14 |
| O=C(O)c1ccc(C2CN(c3cncc(OC[C@H]4CC[C@H](C(F)(F)F)CC4)c3)CCO2)cn1 (stereo partly shown) [Example 49] | 3 |
| COc1ccc(-c2cnnc(OC[C@H]3CC[C@H](C(F)(F)F)CC3)c2)nc1[C@@H]1C[C@@]1(C)C(=O)O [Example 7-2, (1R,2R)-2-[3-methoxy-6-(6-{[trans-4-(trifluoromethyl)cyclohexyl]methoxy}pyridazin-4-yl)pyridin-2-yl]-1-methylcyclopropanecarboxylic Acid] | 2 |
